Like-named read-outs stand apart in the source and are kept apart here.
Key:
[1] = 350 mg/ml, 6 hours, room temperature, Watson-Marlow 505-S pump, tube diameter 0.2 mm, rpm 50
Method: A 6 hour test has been performed wherein a SPB oplossing (350 mg/ml) was circulated at room temperature by a Watson-Marlow 505-S pump, tube diameter 0.2 mm, rpm 50. The pump settings correspond to an almost dropwise output. The speed was controlled to be low to simulate a worst case situation to signal blocking of the tube and/or crystallization of the SPB solution in the tube.

[2] = 1.88 mmol/ml (350 mg/mL SPB) in an aqueous solution
[3] = not given; remark: listed apart in the source

For Sodium Phenylbutyrate [SPB], the “blockage of the tube and crystallization of the SPB solution in the tube” value [1] was “did not occur”, the “pH of aqueous solution” value [2] was > 8 and the crystallization on storage (450 mg/ml, 400 mg/ml and 350 mg/ml solutions, 2 weeks at 25° C., 40° C. and 5° C.) was “Only the SPB 500 mg/ml showed crystallization”. For the same substance, the crystallization on storage (500 mg/ml solution, clear glass bottles, 40° C.) was “crystallization after 1 week”, the “dissolving in purified water” value ([3]; 500 mg/ml) was “required to pre-heat (40° C.) the purified water to dissolve the SPB completely” and the “behaviour during the dissolving process in purified water” value ([3]; SPB concentrations higher than 350 mg/ml) was “significant lumping”.
